# From article PMC10535624, “Curcuminoid Chalcones: Synthesis, Stability, and New Neuroprotective and Sonosensitising Activities” (Pharmaceuticals, 2023)
# Several values for one entry are separate records, joined by “and”; a condition that tells them apart may be missing. Identical values can stand only once.
# Experiments:
# [1] = target: T1, COX-2 (Homo sapiens, UniProt P35354); assay: Effect on COX-2 activity; format: biochemical; conditions: samples 3 mM/dm^3 in DMSO, 0.02 mL; mean ± SEM, n = 3
# T1 sequence (P35354 18-604): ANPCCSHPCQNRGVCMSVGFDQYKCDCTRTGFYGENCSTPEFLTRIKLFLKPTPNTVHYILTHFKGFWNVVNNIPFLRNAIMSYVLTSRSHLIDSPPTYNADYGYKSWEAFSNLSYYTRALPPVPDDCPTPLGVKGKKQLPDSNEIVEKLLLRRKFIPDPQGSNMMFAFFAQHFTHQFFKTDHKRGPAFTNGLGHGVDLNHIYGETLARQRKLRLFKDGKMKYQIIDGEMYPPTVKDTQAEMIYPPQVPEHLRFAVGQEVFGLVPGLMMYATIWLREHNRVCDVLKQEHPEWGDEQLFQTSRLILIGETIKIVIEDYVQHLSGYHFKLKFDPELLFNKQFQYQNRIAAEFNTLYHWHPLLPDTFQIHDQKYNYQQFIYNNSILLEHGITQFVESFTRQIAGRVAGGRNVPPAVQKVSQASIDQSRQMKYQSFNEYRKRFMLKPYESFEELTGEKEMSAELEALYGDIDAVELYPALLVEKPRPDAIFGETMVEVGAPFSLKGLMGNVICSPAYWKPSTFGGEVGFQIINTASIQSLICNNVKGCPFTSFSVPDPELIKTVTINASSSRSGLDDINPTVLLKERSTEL
# [2] = Stress test: oxidative degradation (RP-HPLC); format: physicochemical; conditions: for ICH Classification: oxidising environment
# Experimental: Stock solutions of the test substances (2 or 6) were prepared by dissolving 1 mg of each test substance in 1.5 mL of a mixture of DMSO and MeOH (1:6, v/v). Then, 2 mL solutions of compounds 2 and 6 were prepared at ~30 μg/mL in a hydrogen peroxide solution (1, 3, and 10%). The solutions were placed in dark glass vials and encapsulated, and after an appropriate time (Table 1) the samples were diluted with methanol (1:1, v/v) and transferred to the chromatographic column.
# [3] = target: AChE (Homo sapiens, UniProt P22303); assay: Effect on AChE activity (modified Ellman's method); format: biochemical; conditions: samples 3 mM/dm^3 in DMSO, 0.035 mL; mean ± SEM, n = 3
# Text: Neurodegenerative diseases are associated with the progressive damage of neurons. During the development of these diseases, there is a loss of nerve cells and a deficiency of […], serotonin, and norepinephrine levels. The ability to inhibit acetyl- (AChE) and butyrylcholinesterase (BChE) activities is seen, among others, in organophosphorus compounds, carbamate insecticides, phenoxyacetic pesticides, and hydrogen peroxide, as well as aliphatic ketones with the carbons C4–C9, e.g., 2,5-hexandione. AChE and BChE show differences in their susceptibility to inhibitors, behaviour in situations involving excess substrate, or substrate binding specificity. Unlike, other esterases, both enzymes hydrolyse choline esters at very high speeds. Thus, in our work, the modified Elman’s method was used to investigate the anti-AChE and anti-BChE effects of curcuminoid chalcone.
# The samples were dissolved in DMSO (Sigma D4540) to obtain a concentration of 3 mM/dm^3.
# The analysis was performed strictly as described by Studzińska-Sroka et al., except that the volume of the tested samples added to the reaction mixture was 0.035 mL.
# [4] = target: BChE (Homo sapiens, UniProt P06276); format: biochemical; conditions: samples 3 mM/dm^3 in DMSO, 0.035 mL; mean ± SEM, n = 3
# [5] = Photostability in the solutions (RP-HPLC); format: physicochemical; conditions: MeOH solution; for % Decomposition / Ct: 1.2 × 10^6 lux·h, 22 h; for ICH Classification: light
# Experimental: However, as a result of the action of light, both compounds degraded completely (Table 6, Figure 12). The study was conducted in methanol solutions, irradiated in quartz cuvettes, and in solutions protected from light (aluminium foil). […] During irradiation, the temperature in the Suntest chamber was 35 °C. It was, therefore, concluded that both compounds are photolabile in solutions. […] The visible peaks with Rt values of 6.3 (Figure 12a,c) and 4.4 min (Figure 12b,d) were impurities of compounds 2 and 6, respectively.
# Stock solutions of the test substances (2 or 6) were prepared by dissolving 1 mg of each test substance in 1.5 mL of a mixture of DMSO and MeOH (1:6, v/v). Then, 5 mL solutions of the tested compounds (c ~ 15 µg/mL) in MeOH were prepared. […] Each of the samples (protected and irradiated) was transferred to the chromatographic column. Samples before irradiation were also subjected to chromatographic analysis (t = 0) (Table 2).
# [6] = Photostability in the solid state (IR spectra of KBr tablets); conditions: for ICH Classification: light, solid phase; for Compatibility of the IR spectrum with the spectrum before irradiation: solid phase (KBr tablet)
# [7] = Stress test: strong acid, strong base and neutral degradation (RP-HPLC); format: physicochemical
# Experimental: Several tests were conducted using the ICH guidelines to assess the compound’s stability. In the stress test, two structural isomers of ester-type hybrid compounds were chosen to estimate the structure’s relationship to the compound’s stability. The tested substances were subjected to hydrolysis–solvolysis in neutral, acidic, and alkaline media. As solvents, water, hydrochloric acid, and sodium hydroxide were used in appropriate concentrations.
# Reversed-phase HPLC was used to analyse the degree of degradation. Chromatograms were developed with DAD detection at 254 nm, 308 nm (λmax for 2), and 340 nm (λmax for 6). […] .
# Then, 2.0 mL samples of the tested solutions (c ~60 µg/mL) were prepared in hydrochloric acid (0.1; 0.01 M) or sodium hydroxide solution (0.1, 0.01 M) and demineralised water. The solutions were transferred to glass vials, encapsulated, and stored in a thermal chamber at 90 °C, 40 °C, or 25 °C. After the appropriate time (Table 1), the samples were cooled, diluted with methanol (1:1), and transferred to the chromatography column.
# [8] = protected from light (aluminium foil), 35 °C
# [9] = not protected, 1.2 × 10^6 lux·h
# [10] = not protected, 6.0 × 10^6 lux·h
# [11] = acidic environment, HCl 0.01 M, 40 °C, 8 h
# [12] = alkaline environment, NaOH 0.01 M, 25 °C, 2 h
# [13] = neutral environment, H2O, 90 °C, 24 h
# BChE, sequence (P06276 29-602, species assumed): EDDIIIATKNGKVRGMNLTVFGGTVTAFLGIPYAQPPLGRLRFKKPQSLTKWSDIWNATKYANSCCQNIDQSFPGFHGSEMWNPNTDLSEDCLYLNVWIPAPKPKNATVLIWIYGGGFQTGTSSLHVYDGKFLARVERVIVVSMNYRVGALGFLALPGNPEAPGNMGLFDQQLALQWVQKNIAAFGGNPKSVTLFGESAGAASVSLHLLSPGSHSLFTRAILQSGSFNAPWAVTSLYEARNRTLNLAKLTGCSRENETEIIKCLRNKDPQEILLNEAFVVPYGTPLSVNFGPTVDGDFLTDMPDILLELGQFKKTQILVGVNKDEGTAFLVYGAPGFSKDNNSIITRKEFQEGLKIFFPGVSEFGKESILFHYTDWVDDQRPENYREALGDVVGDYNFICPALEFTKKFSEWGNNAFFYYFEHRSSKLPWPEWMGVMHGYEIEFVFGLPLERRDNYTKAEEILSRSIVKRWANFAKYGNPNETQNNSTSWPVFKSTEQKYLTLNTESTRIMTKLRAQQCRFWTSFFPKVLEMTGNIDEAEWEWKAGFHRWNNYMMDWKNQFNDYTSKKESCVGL
# AChE, sequence (P22303 32-614): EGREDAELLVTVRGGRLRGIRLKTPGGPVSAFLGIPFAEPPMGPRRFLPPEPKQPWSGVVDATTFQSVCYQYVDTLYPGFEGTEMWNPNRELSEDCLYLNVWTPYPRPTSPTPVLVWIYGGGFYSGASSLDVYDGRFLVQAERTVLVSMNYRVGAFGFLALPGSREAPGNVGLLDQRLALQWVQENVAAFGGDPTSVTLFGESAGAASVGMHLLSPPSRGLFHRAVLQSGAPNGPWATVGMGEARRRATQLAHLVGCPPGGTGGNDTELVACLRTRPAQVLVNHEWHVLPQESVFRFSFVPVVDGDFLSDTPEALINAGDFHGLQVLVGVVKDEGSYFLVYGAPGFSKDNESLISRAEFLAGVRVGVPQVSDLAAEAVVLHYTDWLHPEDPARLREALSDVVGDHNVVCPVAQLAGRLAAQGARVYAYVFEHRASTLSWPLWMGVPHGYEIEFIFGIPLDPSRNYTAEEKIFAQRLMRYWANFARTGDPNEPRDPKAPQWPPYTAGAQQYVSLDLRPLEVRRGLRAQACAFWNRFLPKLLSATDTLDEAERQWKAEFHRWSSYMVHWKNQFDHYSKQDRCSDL
smiles,measurement,setting,value
"COc1cc(C=CC(=O)c2ccccc2)ccc1OC(=O)C(C)c1ccc(CC(C)C)cc1 (centres unmarked) [Compound 2, 2-Methoxy-4-(3-oxo-3-phenylprop-1-en-1-yl)phenyl-2-(4-isobutylphenyl)-propionate]",COX-2 Inhibition (%),[1],-
same,% Decomposition,"[2]; H2O2 1%, 30 min",<0.5%
same,Ct,"[2]; H2O2 1%, 30 min",29.9 µg/mL
same,% Decomposition,"[2]; H2O2 3%, 24 h",<0.5%
same,Ct,"[2]; H2O2 3%, 24 h",29.8 µg/mL
same,% Decomposition,"[2]; H2O2 10%, 24 h",<0.5%
same,Ct,"[2]; H2O2 10%, 24 h",30.1 µg/mL
same,ICH Classification,"[2]; H2O2 10%, 24 h",practically stable
same,AChE % (inhibition),[3],90.5 ± 4.2%
same,"AChE, Equivalent Concentration of Reference Compound Magniflorine",[3],0.34 ± 0.02 µg/mL
same,"AChE, Equivalent Concentration of Reference Compound Rivastigmine",[3],0.52 ± 0.02 µg/mL
same,BChE % (inhibition),[4],89.7 ± 4.8%
same,"BChE, Equivalent Concentration of Reference Compound Magniflorine",[4],0.35 ± 0.02 µg/mL
same,"BChE, Equivalent Concentration of Reference Compound Rivastigmine",[4],0.26 ± 0.01 µg/mL
same,% Decomposition,[5]; not protected,100%
same,Ct,[5]; not protected,0 µg/mL
same,% Decomposition,[5]; [8],68% and 68.2%
same,Ct,[5]; [8],4.8 µg/mL
same,ICH Classification,[5],Photolabile
same,ICH Classification,[6],Photolabile
same,Compatibility of the IR spectrum with the spectrum before irradiation,[6]; [9],0.9404
same,Compatibility of the IR spectrum with the spectrum before irradiation,[6]; [10],0.9017
same,Compatibility of the IR spectrum with the spectrum before irradiation,"[6]; protected, 1.2 × 10^6 lux·h",0.9995
same,Compatibility of the IR spectrum with the spectrum before irradiation,"[6]; protected, 6.0 × 10^6 lux·h",0.9994
same,% Decomposition,"[7]; H2O, 90 °C, 24 h",24.4%
same,Ct,"[7]; H2O, 90 °C, 24 h",46.3 µg/mL
same,% Decomposition,"[7]; HCl 0.01 M, 40 °C, 8 h",44% and 43.8%
same,Ct,"[7]; HCl 0.01 M, 40 °C, 8 h",33.7 µg/mL
same,% Decomposition,"[7]; HCl 0.1 M, 90 °C, 16 h",91.8%
same,Ct,"[7]; HCl 0.1 M, 90 °C, 16 h",5.0 µg/mL
same,% Decomposition,"[7]; NaOH 0.01 M, 25 °C, 2 h",100%
same,Ct,"[7]; NaOH 0.01 M, 25 °C, 2 h",0 µg/mL
same,% Decomposition,"[7]; NaOH 0.1 M, 90 °C, 16 h",100%
same,Ct,"[7]; NaOH 0.1 M, 90 °C, 16 h",0 µg/mL
same,ICH Classification,[7]; [11],very unstable
same,ICH Classification,[7]; [12],extremely unstable
same,ICH Classification,[7]; [13],unstable
"COc1ccc(C=CC(=O)c2ccccc2)cc1OC(=O)C(C)c1ccc(CC(C)C)cc1 (centres unmarked) [Compound 6, 2-Methoxy-5-(3-oxo-3-phenylprop-1-en-1-yl)phenyl-2-(4-isobutylphenyl)-propionate]",COX-2 Inhibition (%),[1],-
same,% Decomposition,"[2]; H2O2 1%, 30 min",<0.5%
same,Ct,"[2]; H2O2 1%, 30 min",29.7 µg/mL
same,% Decomposition,"[2]; H2O2 3%, 24 h",<0.5%
same,Ct,"[2]; H2O2 3%, 24 h",29.9 µg/mL
same,% Decomposition,"[2]; H2O2 10%, 24 h",<0.5%
same,Ct,"[2]; H2O2 10%, 24 h",30.0 µg/mL
same,ICH Classification,"[2]; H2O2 10%, 24 h",practically stable
same,AChE % (inhibition),[3],73.7 ± 5.1%
same,"AChE, Equivalent Concentration of Reference Compound Magniflorine",[3],0.28 ± 0.02 µg/mL
same,"AChE, Equivalent Concentration of Reference Compound Rivastigmine",[3],0.42 ± 0.03 µg/mL
same,BChE % (inhibition),[4],77.3 ± 5.2%
same,"BChE, Equivalent Concentration of Reference Compound Magniflorine",[4],0.30 ± 0.02 µg/mL
same,"BChE, Equivalent Concentration of Reference Compound Rivastigmine",[4],0.22 ± 0.02 µg/mL
same,% Decomposition,[5]; not protected,100%
same,Ct,[5]; not protected,0 µg/mL
same,% Decomposition,[5]; [8],7.9%
same,Ct,[5]; [8],13.8 µg/mL
same,ICH Classification,[5],Photolabile
same,ICH Classification,[6],Photolabile
same,Compatibility of the IR spectrum with the spectrum before irradiation,[6]; [9],0.9962
same,Compatibility of the IR spectrum with the spectrum before irradiation,[6]; [10],0.9752
same,Compatibility of the IR spectrum with the spectrum before irradiation,"[6]; protected, 1.2 × 10^6 lux·h",0.9997
same,Compatibility of the IR spectrum with the spectrum before irradiation,"[6]; protected, 6.0 × 10^6 lux·h",0.9993
same,% Decomposition,"[7]; H2O, 90 °C, 24 h",23.9%
same,Ct,"[7]; H2O, 90 °C, 24 h",50.9 µg/mL
same,% Decomposition,"[7]; HCl 0.01 M, 40 °C, 8 h",18% and 17.8%
same,Ct,"[7]; HCl 0.01 M, 40 °C, 8 h",49.3 µg/mL
same,% Decomposition,"[7]; HCl 0.1 M, 90 °C, 16 h",97.8%
same,Ct,"[7]; HCl 0.1 M, 90 °C, 16 h",1.5 µg/mL
same,% Decomposition,"[7]; NaOH 0.01 M, 25 °C, 2 h",100%
same,Ct,"[7]; NaOH 0.01 M, 25 °C, 2 h",0 µg/mL
same,% Decomposition,"[7]; NaOH 0.1 M, 90 °C, 16 h",100%
same,Ct,"[7]; NaOH 0.1 M, 90 °C, 16 h",0 µg/mL
same,ICH Classification,[7]; [11],very unstable
same,ICH Classification,[7]; [12],extremely unstable
same,ICH Classification,[7]; [13],unstable
